Source: the NIST ThermoML archive (doi:10.1016/j.tca.2011.01.001)
± gives the expanded uncertainty stated by the source.

How the values were obtained:
[1] = Molar enthalpy of transition or fusion; conditions: Crystal; DSC

O=C(O)c1ccc(O)c(O)c1 [3,4-dihydroxybenzoic acid]
Conditions	Molar enthalpy of transition or fusion [kcal/mol]
[1]	8.13 ± 0.478

Conditions	vapor or sublimation pressure [kPa]
381.8 K, Crystal, Torsion effusion method	6e-05 ± 3e-06
383 K, Crystal, Torsion effusion method	6.7e-05 ± 3e-06
384.5 K, Crystal, Torsion effusion method	7.7e-05 ± 4e-06
385.6 K, Crystal, Torsion effusion method	8.7e-05 ± 4e-06
387.2 K, Crystal, Torsion effusion method	0.000104 ± 5e-06
388.6 K, Crystal, Torsion effusion method	0.000117 ± 6e-06
390 K, Crystal, Torsion effusion method	0.000143 ± 7e-06
391.4 K, Crystal, Torsion effusion method	0.00016 ± 8e-06
392.8 K, Crystal, Torsion effusion method	0.000191 ± 1e-05
394.2 K, Crystal, Torsion effusion method	0.000216 ± 1.1e-05
395.4 K, Crystal, Torsion effusion method	0.000251 ± 1.3e-05
396.9 K, Crystal, Torsion effusion method	0.000286 ± 1.4e-05
398.3 K, Crystal, Torsion effusion method	0.00033 ± 1.7e-05
399.8 K, Crystal, Torsion effusion method	0.000377 ± 1.9e-05
401.2 K, Crystal, Torsion effusion method	0.000465 ± 2.3e-05
402.6 K, Crystal, Torsion effusion method	0.000533 ± 2.7e-05
404 K, Crystal, Torsion effusion method	0.00061 ± 3.1e-05
405.4 K, Crystal, Torsion effusion method	0.000701 ± 3.5e-05
406.8 K, Crystal, Torsion effusion method	0.000804 ± 4e-05
407.7 K, Crystal, Torsion effusion method	0.000876 ± 4.4e-05
408.9 K, Crystal, Torsion effusion method	0.000997 ± 5e-05
485.2 K, Liquid, Non-isothermal TG	0.819 ± 0.17
485.8 K, Liquid, Non-isothermal TG	0.807 ± 0.18
486.2 K, Liquid, Non-isothermal TG	0.892 ± 0.18
486.8 K, Liquid, Non-isothermal TG	0.868 ± 0.18
487.2 K, Liquid, Non-isothermal TG	0.933 ± 0.2
487.7 K, Liquid, Non-isothermal TG	0.902 ± 0.18
488.1 K, Liquid, Non-isothermal TG	0.974 ± 0.2
488.4 K, Liquid, Isothermal TG	0.983 ± 0.21
488.7 K, Liquid, Non-isothermal TG	0.967 ± 0.2
488.8 K, Liquid, Isothermal TG	1.007 ± 0.21
489.1 K, Liquid, Non-isothermal TG	1.005 ± 0.21
489.2 K, Liquid, Isothermal TG	1.027 ± 0.21
489.6 K, Liquid, Isothermal TG	1.061 ± 0.22
489.7 K, Liquid, Non-isothermal TG	1.033 ± 0.22
490 K, Liquid, Isothermal TG	1.074 ± 0.22
490.1 K, Liquid, Non-isothermal TG	1.129 ± 0.23
490.4 K, Liquid, Isothermal TG	1.092 ± 0.23
490.7 K, Liquid, Non-isothermal TG	1.087 ± 0.23
490.8 K, Liquid, Isothermal TG	1.129 ± 0.23
491.1 K, Liquid, Non-isothermal TG	1.188 ± 0.25
491.2 K, Liquid, Isothermal TG	1.153 ± 0.24
491.6 K, Liquid, Isothermal TG	1.192 ± 0.25
491.7 K, Liquid, Non-isothermal TG	1.162 ± 0.24
492 K, Liquid, Isothermal TG	1.22 ± 0.26
492.2 K, Liquid, Non-isothermal TG	1.221 ± 0.25
492.4 K, Liquid, Isothermal TG	1.254 ± 0.26
492.7 K, Liquid, Non-isothermal TG	1.286 ± 0.27
492.8 K, Liquid, Isothermal TG	1.28 ± 0.27
493.1 K, Liquid, Non-isothermal TG	1.327 ± 0.27
493.2 K, Liquid, Isothermal TG	1.32 ± 0.27
493.6 K, Liquid, Isothermal TG	1.346 ± 0.28
493.7 K, Liquid, Non-isothermal TG	1.298 ± 0.28
494 K, Liquid, Isothermal TG	1.374 ± 0.29
494.1 K, Liquid, Non-isothermal TG	1.375 ± 0.28
494.4 K, Liquid, Isothermal TG	1.381 ± 0.28
494.7 K, Liquid, Non-isothermal TG	1.365 ± 0.28
494.8 K, Liquid, Isothermal TG	1.445 ± 0.3
495 K, Liquid, Non-isothermal TG	1.494 ± 0.3
495.2 K, Liquid, Isothermal TG	1.477 ± 0.3
495.6 K, Liquid, Isothermal TG	1.482 ± 0.31
495.7 K, Liquid, Non-isothermal TG	1.435 ± 0.3
495.9 K, Liquid, Non-isothermal TG	1.566 ± 0.33
496 K, Liquid, Isothermal TG	1.529 ± 0.31
496.4 K, Liquid, Isothermal TG	1.557 ± 0.32
496.7 K, Liquid, Non-isothermal TG	1.477 ± 0.31
496.8 K, Liquid, Isothermal TG	1.584 ± 0.33
496.9 K, Liquid, Non-isothermal TG	1.652 ± 0.36
497.2 K, Liquid, Isothermal TG	1.607 ± 0.33
497.6 K, Liquid, Isothermal TG	1.636 ± 0.34
497.7 K, Liquid, Non-isothermal TG	1.634 ± 0.33
498 K, Liquid, Isothermal TG	1.682 ± 0.34
498 K, Liquid, Non-isothermal TG	1.745 ± 0.35
498.4 K, Liquid, Isothermal TG	1.699 ± 0.35
498.8 K, Liquid, Isothermal TG	1.728 ± 0.35
498.8 K, Liquid, Non-isothermal TG	1.703 ± 0.36
499 K, Liquid, Non-isothermal TG	1.71 ± 0.35
499.1 K, Liquid, Isothermal TG	1.751 ± 0.36
499.5 K, Liquid, Isothermal TG	1.764 ± 0.36
499.7 K, Liquid, Non-isothermal TG	1.817 ± 0.37
499.9 K, Liquid, Non-isothermal TG	1.882 ± 0.39
500 K, Liquid, Isothermal TG	1.815 ± 0.37
500.4 K, Liquid, Isothermal TG	1.865 ± 0.38
500.7 K, Liquid, Isothermal TG	1.879 ± 0.38
500.7 K, Liquid, Non-isothermal TG	1.858 ± 0.38
501 K, Liquid, Non-isothermal TG	1.898 ± 0.38
501.2 K, Liquid, Isothermal TG	1.914 ± 0.39
501.6 K, Liquid, Isothermal TG	1.939 ± 0.4
501.7 K, Liquid, Non-isothermal TG	1.899 ± 0.38
502 K, Liquid, Isothermal TG	1.945 ± 0.39
502 K, Liquid, Non-isothermal TG	1.962 ± 0.4
502.4 K, Liquid, Isothermal TG	2.003 ± 0.41
502.7 K, Liquid, Non-isothermal TG	1.95 ± 0.39
502.8 K, Liquid, Isothermal TG	2.047 ± 0.42
503.1 K, Liquid, Non-isothermal TG	2.033 ± 0.41
503.8 K, Liquid, Non-isothermal TG	2.014 ± 0.43
504.1 K, Liquid, Non-isothermal TG	2.184 ± 0.45
504.7 K, Liquid, Non-isothermal TG	2.179 ± 0.45
505 K, Liquid, Non-isothermal TG	2.292 ± 0.51
505.7 K, Liquid, Non-isothermal TG	2.217 ± 0.44

Conditions	Normal melting temperature [°C]
Crystal, DTA	201.8 ± 0.5
